The source made the active and inactive calls. How the calls were made is not given here.
Target: Serine/threonine-protein kinase mTOR (Homo sapiens) (UniProt P42345)
Assay: binders of mTOR FRB domain, biophysical, NMR (AID 1648)
Details: NMR binding to FRB domain, chemical shift

Chain of Serine/threonine-protein kinase mTOR (Homo sapiens) (P42345 2015-2114): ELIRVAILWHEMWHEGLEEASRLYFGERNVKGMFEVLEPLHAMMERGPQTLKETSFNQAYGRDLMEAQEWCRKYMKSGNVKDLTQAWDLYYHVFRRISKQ

SMILES	Kd
CC(=O)O[C@H]1C(=O)[C@@]2(C)C([C@H](OC(=O)c3ccccc3)[C@]3(O)C[C@H](OC(=O)[C@H](O)[C@@H](NC(=O)c4ccccc4)c4ccccc4)C(C)=C1C3(C)C)[C@]1(OC(C)=O)CO[C@@H]1C[C@@H]2O (some centres undefined)	> 4 mM (inactive)
N=Cc1c(O)n(-c2cccc(Cl)c2)c(=O)[nH]c1=O	> 4 mM (inactive)
CN1C2C[C@H](OC(=O)[C@H](CO)c3ccccc3)C[C@H]1[C@@H](O)C2	> 4 mM (inactive)
Nc1ccc(C(=O)NCC2CCCO2)cc1 (centres undefined)	> 4 mM (inactive)
O=C(NCc1ccccn1)c1ccccc1Cl	> 4 mM (inactive)
Nc1ccccc1OC(F)(F)F	> 4 mM (inactive)
Nc1ccc2ncsc2c1	> 4 mM (inactive)
CC(=O)Nc1ccc(C(=O)NC2CCSC2=O)cc1 (centres undefined)	> 4 mM (inactive)
NCc1cccc2nsnc12	> 4 mM (inactive)
Cn1ncc(CO)c1-c1ccccc1	> 4 mM (inactive)
CO[C@H]1[C@@H](O)[C@@H](C)O[C@H](O[C@H]2CCC3(C)C4CCC5(C)[C@@H](C6=CC(=O)OC6)CC[C@]5(O)[C@@H]4CC[C@]3(O)C2)[C@@H]1O (some centres undefined)	> 4 mM (inactive)
Cc1nnc(SCc2ccc(F)cc2)s1	> 4 mM (inactive)
Cc1cccc(N2CCN(C(=O)c3ccncc3)CC2)c1C	> 4 mM (inactive)
c1ccc2[nH]c(-c3cscn3)nc2c1	> 4 mM (inactive)
O=C(O)c1cc2ccccc2cn1	> 4 mM (inactive)
Cc1ccccc1-n1c(N)cc(=O)[nH]c1=S	> 4 mM (inactive)
Fc1cc2nccnc2cc1N1CCSCC1	> 4 mM (inactive)
O=c1ccc2ccc(O)cc2o1	> 4 mM (inactive)
CC(C)(C)Cc1nc(-c2ccccn2)no1	> 4 mM (inactive)
Nc1nc(=S)n2c(n1)oc1ccccc12	> 4 mM (inactive)
N#Cc1cnn(Cc2ccc(Cl)cc2)c1N	> 4 mM (inactive)
Nc1ccc(S(=O)(=O)Nc2nccs2)cc1	> 4 mM (inactive)
Clc1ccc(-c2noc(CN3CCCC3)n2)cc1	> 4 mM (inactive)

SMILES	Kd
O=C(Nc1ccc(O)cc1)N1CCOCC1	> 4 mM (inactive)
Nc1ccc(Cc2ccncc2)cc1	> 4 mM (inactive)
COC(=O)[C@@H]1C(O)CC[C@H]2CN3CCc4c([nH]c5ccccc45)[C@@H]3C[C@@H]21 (some centres undefined)	> 4 mM (inactive)
Cc1c(C(=O)Nc2ccccc2)sc(N)c1C(N)=O	> 4 mM (inactive)
NCC1CN(Cc2ccccc2)CCO1 (centres undefined)	> 4 mM (inactive)
COC(=O)c1cccnc1Oc1ccccc1	> 4 mM (inactive)
CCOC(=O)c1cc(C)[nH]n1	> 4 mM (inactive)
CC(=O)Nc1nnc(-c2ccccn2)o1	> 4 mM (inactive)
OCc1snnc1-c1ccccc1	> 4 mM (inactive)
C/C=C(/C)C(=O)O[C@H]1CC[C@@]2(C)[C@@H]3CC[C@H]4[C@]5(O)C[C@H](O)[C@@]6(O)[C@@H](CN7C[C@@H](C)CC[C@H]7[C@@]6(C)O)[C@]5(O)C[C@@]42OC13O	> 4 mM (inactive)
COc1ccc(NC(=O)CCCC(=O)O)c(OC)c1	> 4 mM (inactive)
Oc1cc(O)cc(/C=C/c2ccccc2)c1	> 4 mM (inactive)
NC(=O)C1CCN(C(=O)c2ccccc2F)CC1	> 4 mM (inactive)
O=C(c1ccccc1)N1CCOCC1	> 4 mM (inactive)
CC(=O)Nc1nc(C)c(C(C)=O)s1	> 4 mM (inactive)
CNC(=S)Nc1ccc2c(c1)OCO2	> 4 mM (inactive)
O=c1oc(-c2ccccc2)nc2c1cnn2-c1ccccc1	> 4 mM (inactive)
CN(C)c1nc(N)nc(Cn2ccnc2)n1	> 4 mM (inactive)
COc1ccc2c(c1)OC/C(=C\c1ccc(OC)c(O)c1)C2=O	> 4 mM (inactive)
Oc1ccc2nonc2c1	> 4 mM (inactive)
O=C(Nc1ccc2c(c1)OCO2)c1cnn2cccnc12	> 4 mM (inactive)
Cn1c(SCC(N)=O)nnc1-c1cccnc1	> 4 mM (inactive)
O=C(NCc1ccc2c(c1)OCO2)c1cccs1	> 4 mM (inactive)

SMILES	Kd
CC1SC(=NC(=O)c2ccco2)NC1=O (centres undefined)	> 4 mM (inactive)
Cc1cc(C(=O)N2CCN(S(C)(=O)=O)CC2)cs1	> 4 mM (inactive)
CC(C)C(=O)NCC(c1ccco1)N1CCOCC1 (centres undefined)	> 4 mM (inactive)
COc1cc(O)c(C(C)=O)c(OC)c1	> 4 mM (inactive)
Cn1nc(C(C)(C)C)cc1N	> 4 mM (inactive)
Cc1cc(NC(=O)Cc2cccs2)no1	> 4 mM (inactive)
C[C@]12CC(=O)C3C(CC[C@@H]4C[C@H](O)CC[C@]34C)C1CC[C@]2(O)C(=O)CO (some centres undefined)	> 4 mM (inactive)
CNC(=O)N1CCN(C(=O)NC)CC1	> 4 mM (inactive)
O=C1CC[C@]23/C=C/C(=O)NCCCCNCCCNC(=O)/C=C/c4ccc(c2c4)O[C@@H]3C1	> 4 mM (inactive)
O=C(O)c1cccc(O)c1O	> 4 mM (inactive)
COc1c(CC=C(C)C)c2c(c3oc(=O)c(-c4ccc(O)cc4)c(O)c13)C=CC(C)(C)O2	> 4 mM (inactive)
CCC(CO)NC(=O)c1snnc1C (centres undefined)	> 4 mM (inactive)
CC1CCN(C(=O)c2cc3ccccc3o2)CC1	> 4 mM (inactive)
Cc1occc1C(=O)Nc1ccc2c(c1)OCO2	> 4 mM (inactive)
COCc1cc(Cl)nc(-c2csc(C)n2)n1	> 4 mM (inactive)
c1ccc(-n2cnnc2)nc1	> 4 mM (inactive)
Nc1c2c3c(sc2nc(=O)n1N)CCCC3	> 4 mM (inactive)
CC(=O)CC1(O)C(=O)Nc2ccccc21 (centres undefined)	> 4 mM (inactive)
O=C(Nc1cccc(C(F)(F)F)c1)c1cccnc1	> 4 mM (inactive)
O=C1CCNc2ccccc2N1	> 4 mM (inactive)
COC1C=CC23c4cc5c(cc4CN(CC2O)[C@@H]3C1)OCO5 (some centres undefined)	> 4 mM (inactive)
O=C1CCCC(=O)N1c1ccc(O)cc1	> 4 mM (inactive)
CCCCn1c(S(=O)(=O)O)nc2ccccc21	> 4 mM (inactive)

SMILES	Kd
CC(C)n1c(-c2ccncc2)n[nH]c1=S	> 4 mM (inactive)
COC(=O)c1ccc2snnc2c1	> 4 mM (inactive)
Cc1ccc(C(=O)Nc2nnc(-c3ccncc3)s2)o1	> 4 mM (inactive)
CCOC(=O)c1cnn2ccccc12	> 4 mM (inactive)
CC(=O)CS(=O)(=O)c1ccccc1	> 4 mM (inactive)
Cc1c(C)n2c(SCC(N)=O)nnc2[nH]c1=O	> 4 mM (inactive)
CC(=O)O[C@H]1C[C@@H](OC(C)=O)C(C)(C)C2C[C@@H](OC(C)=O)[C@@]3(C)C4=CC(=O)O[C@@H](c5ccoc5)[C@]4(C)CCC3[C@]21C (some centres undefined)	> 4 mM (inactive)
CC(=O)NN1C(=O)c2cccc3cccc(c23)C1=O	> 4 mM (inactive)
Cc1cc(C(=O)NCc2cccs2)c(C)o1	> 4 mM (inactive)
O=c1[nH]c(O)c(C=NCc2cccs2)c(=O)[nH]1	> 4 mM (inactive)
Cc1csc(NC(=O)c2cccs2)n1	> 4 mM (inactive)
Cc1cc(N)n(C2CCOC(C)(C)C2)n1 (centres undefined)	> 4 mM (inactive)
COC(=O)C[C@@H]1C2(C)C(=O)[C@@H](CC3C2CC[C@]2(C)C3CC(=O)O[C@H]2c2ccoc2)[C@H](OC(C)=O)C1(C)C (some centres undefined)	> 4 mM (inactive)
OC[C@@H](O)[C@@H](O[C@@H]1O[C@H](CO)[C@@H](O)[C@H](O)[C@H]1O)[C@H](O)[C@@H](O)CO	> 4 mM (inactive)
O=C(c1ccc2c(c1)OCO2)N1CCC2(CC1)OCCO2	> 4 mM (inactive)
CCOC(=O)C(C)c1n[nH]c(=O)c2ccccc12 (centres undefined)	> 4 mM (inactive)
COc1ccc2[nH]cc(CCNC(C)=O)c2c1	> 4 mM (inactive)
CC(CC(=O)NN)C1(O)CCCCC1 (centres undefined)	> 4 mM (inactive)
OCc1nccn1Cc1ccccc1	> 4 mM (inactive)
O=C1C=C(Nc2ccc(O)cc2)c2ccccc2C1=O	> 4 mM (inactive)
O=C(O)C1(S(=O)(=O)c2ccccc2)CC1	> 4 mM (inactive)
O=C(Nc1nc2ccccc2s1)c1ccc(=O)[nH]n1	> 4 mM (inactive)
COC(=O)C(O)c1ccccc1 (centres undefined)	> 4 mM (inactive)

SMILES	Kd
CN(C)C(=O)Oc1ccc(-c2nnco2)cc1	> 4 mM (inactive)
CNC(=O)Nc1cccc(C(F)(F)F)c1	> 4 mM (inactive)
COc1ccc(C2(C)CC(=O)NC2=O)cc1 (centres undefined)	> 4 mM (inactive)
Cc1cc(C(=O)Nc2ccc3c(c2)OCCO3)c(C)o1	> 4 mM (inactive)
CSc1nc(C)c(Oc2ccccc2)c(=O)n1C	> 4 mM (inactive)
CC(=O)Nc1ccc(S(=O)(=O)Nc2cc(C)on2)cc1	> 4 mM (inactive)
Cc1n[nH]c(=S)n(/N=C/c2ccccc2)c1=O	> 4 mM (inactive)
Oc1cccc2[nH]ccc12	> 4 mM (inactive)
Cn1[nH]c2nc3[nH]n(C)c(=O)c3c(-c3ccccc3)c2c1=O	> 4 mM (inactive)
Oc1cc(O)c2c(c1)O[C@H](c1ccc(O)c(O)c1)[C@H](O)C2	> 4 mM (inactive)
CCOC(=O)Nc1ccc2c(C)cc(=O)oc2c1	> 4 mM (inactive)
COc1ccc(-c2cc(=O)c3c(O)c(OC)c(O[C@H]4O[C@H](CO[C@@H]5O[C@@H](C)[C@H](O)[C@@H](O)[C@H]5O)[C@@H](O)[C@H](O)[C@H]4O)cc3o2)cc1	> 4 mM (inactive)
CN(C)C(=O)N1CCN(C(=O)c2ccco2)CC1	> 4 mM (inactive)
CNC(=O)C1CC(=O)N(c2ccc(O)cc2)C1 (centres undefined)	> 4 mM (inactive)
Cc1onc(-c2ccccc2)c1C(=O)Nc1ccncc1	> 4 mM (inactive)
CNc1nc(C)nc(-n2nc(C)cc2C)n1	> 4 mM (inactive)
CCC(=O)NC(=S)Nc1ccc(O)cc1	> 4 mM (inactive)
CNc1nnc(Cc2csc(N)n2)s1	> 4 mM (inactive)
COc1ccccc1-c1noc(-c2ccncc2)n1	> 4 mM (inactive)
Oc1ccc([C@H]2Oc3cc(O)cc(O)c3C[C@H]2O)cc1	> 4 mM (inactive)
Cc1ccc(NC(=O)C(=O)Nc2ccccn2)cc1	> 4 mM (inactive)
O=C(O)c1cncc(-c2ccccc2)c1	> 4 mM (inactive)

Source: PubChem BioAssay AID1648 (Sanford-Burnham Center for Chemical Genomics, 2009)
